Experimental findings from patent publication US20230233569A1 (Revolution Medicines, Inc., priority 2020, published 2023) are described below.

Read-outs that look alike come from different tables or passages of the source.

Holding throughout (assay): Disruption of BRAF RBD interaction with Ras (FRET / MOA assay, with Cyclophilin A)
Type in all cases: biochemical

One assay deals with KRAS G12C (Homo sapiens, UniProt P01116+P62937, G12C). From the text: (§1) This protocol may also be executed substituting other Ras proteins or nucleotides.
Sequence of KRAS G12C (P01116 1-169 isoform P01116-2 G12C): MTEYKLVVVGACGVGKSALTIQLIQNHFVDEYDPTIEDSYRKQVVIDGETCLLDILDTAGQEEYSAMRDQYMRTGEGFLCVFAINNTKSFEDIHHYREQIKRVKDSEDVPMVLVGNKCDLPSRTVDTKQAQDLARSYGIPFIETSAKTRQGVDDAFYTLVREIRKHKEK
Sequence of KRAS G12C (P62937 whole entry, canonical isoform): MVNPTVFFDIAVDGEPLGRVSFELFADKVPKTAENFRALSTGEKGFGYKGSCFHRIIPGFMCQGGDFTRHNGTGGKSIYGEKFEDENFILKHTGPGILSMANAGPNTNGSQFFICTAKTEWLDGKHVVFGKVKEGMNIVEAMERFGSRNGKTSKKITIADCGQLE
(§2) The purpose of this biochemical assay was to measure the ability of test compounds to facilitate ternary complex formation between a nucleotide-loaded K-Ras isoform and Cyclophilin A; the resulting ternary complex disrupts binding to a BRAF^RBD construct, inhibiting K-Ras signaling through a RAF effector. Data is reported as IC50 values.
(§3) Compound was present in plate wells as a 10-point 3-fold dilution series starting at a final concentration of 30 μM. After incubation at 25° C. for 3 hours, a mixture of Anti-His Eu-W1024 and anti-GST allophycocyanin was then added to assay sample wells at final concentrations of 10 nM and 50 nM, respectively, and the reaction incubated for an additional 1.5 hours. […] Compounds that facilitate disruption of a K-Ras:RAF complex were identified as those eliciting a decrease in the TR-FRET ratio relative to DMSO control wells.
(§4) The purpose of this biochemical assay was to measure the ability of test compounds to facilitate ternary complex formation between a nucleotide-loaded K-Ras isoform and Cyclophilin A; the resulting ternary complex disrupts binding to a BRAF^RBDD construct, inhibiting K-Ras signaling through a RAF effector. Data is reported as IC50 values.

A further assay addresses KRAS G12D (Homo sapiens, UniProt P01116+P62937, G12D). Conditions: read-out: KRAS G12D FRET data, IC50.
Text: as §1, §2, §3, §4

A further assay has as its target KRAS G12S (Homo sapiens, UniProt P01116+P62937, G12S). Conditions: read-out: KRAS G12S FRET data, IC50.
Text: as §1, §2, §3, §4

The next assay deals with KRAS G12V (Homo sapiens, UniProt P01116+P62937, G12V). Conditions: KRAS G12V; read-out: KRAS G12V FRET data IC50.
Sequence of KRAS G12V (P01116 1-169 isoform P01116-2 G12V limits assumed): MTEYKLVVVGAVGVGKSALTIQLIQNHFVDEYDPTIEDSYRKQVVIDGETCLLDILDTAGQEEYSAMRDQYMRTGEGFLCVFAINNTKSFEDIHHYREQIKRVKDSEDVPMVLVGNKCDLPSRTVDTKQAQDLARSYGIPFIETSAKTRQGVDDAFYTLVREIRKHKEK
Sequence of KRAS G12V (P62937 whole entry): as the sequence (P62937 whole entry, canonical isoform) above
Text: as §1, §2, §3, §4

Another assay concerns the target KRAS G13C (Homo sapiens, UniProt P01116+P62937, G13C).
Text: as §1, §2, §3, §4

The target of the next assay is KRAS G13D (Homo sapiens, UniProt P01116+P62937, G13D).
Sequence of KRAS G13D (P01116 1-169 isoform P01116-2 G13D limits assumed): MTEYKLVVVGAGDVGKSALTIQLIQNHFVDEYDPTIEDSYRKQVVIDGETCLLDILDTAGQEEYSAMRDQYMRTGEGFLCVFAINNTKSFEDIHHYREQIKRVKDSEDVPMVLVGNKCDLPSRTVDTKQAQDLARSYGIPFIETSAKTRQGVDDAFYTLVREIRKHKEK
Sequence of KRAS G13D (P62937 whole entry): as the sequence (P62937 whole entry, canonical isoform) above
Text: as §1, §2, §3, §4

For another assay, the target named is KRAS WT (Homo sapiens, UniProt P01116+P62937). Conditions: KRAS WT; read-out: KRAS WT FRET data IC50.
Sequence of KRAS WT (P01116 1-169 isoform P01116-2 limits assumed): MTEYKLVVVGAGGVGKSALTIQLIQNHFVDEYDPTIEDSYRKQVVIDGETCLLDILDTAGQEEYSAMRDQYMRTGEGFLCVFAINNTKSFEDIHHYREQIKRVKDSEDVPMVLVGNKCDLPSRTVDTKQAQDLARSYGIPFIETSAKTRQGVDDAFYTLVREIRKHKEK
Sequence of KRAS WT (P62937 whole entry): as the sequence (P62937 whole entry, canonical isoform) above
Text: as §1, §2, §3, §4

The next assay has as its target NRAS G12C (Homo sapiens, UniProt P01111+P62937, G12C). Conditions: NRAS G12C; read-out: NRAS G12C FRET data IC50.
Text: as §1, §2, §3, §4

Setting [1] is: read-out: KRAS G12C FRET data, IC50.
Where [2] appears, read: read-out: KRAS G13C FRET data, IC50.
Setting [3] is: KRAS G13D, read-out: KRAS G13D FRET data IC50.
Setting [4] is: KRAS G12C, read-out: KRAS G12C FRET data IC50.
The mark [5] stands for this setting: KRAS G13C, read-out: KRAS G13C FRET data IC50.

Sequence of KRAS G13C (P01116 1-169 isoform P01116-2 G13C): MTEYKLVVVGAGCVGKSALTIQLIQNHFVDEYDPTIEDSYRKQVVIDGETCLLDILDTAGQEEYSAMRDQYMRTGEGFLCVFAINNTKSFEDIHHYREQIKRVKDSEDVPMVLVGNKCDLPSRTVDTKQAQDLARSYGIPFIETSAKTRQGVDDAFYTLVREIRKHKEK
Sequence of KRAS G13C (P62937 whole entry): as the sequence (P62937 whole entry, canonical isoform) above
Sequence of NRAS G12C (P01111 whole entry G12C): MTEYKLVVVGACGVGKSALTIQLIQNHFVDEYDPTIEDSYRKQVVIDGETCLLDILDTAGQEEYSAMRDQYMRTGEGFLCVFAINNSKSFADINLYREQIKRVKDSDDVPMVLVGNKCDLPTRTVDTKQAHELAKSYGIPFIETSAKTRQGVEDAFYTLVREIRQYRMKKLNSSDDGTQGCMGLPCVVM
Sequence of NRAS G12C (P62937 whole entry): as the sequence (P62937 whole entry, canonical isoform) above
Sequence of KRAS G12S (P01116 1-169 isoform P01116-2 G12S limits assumed): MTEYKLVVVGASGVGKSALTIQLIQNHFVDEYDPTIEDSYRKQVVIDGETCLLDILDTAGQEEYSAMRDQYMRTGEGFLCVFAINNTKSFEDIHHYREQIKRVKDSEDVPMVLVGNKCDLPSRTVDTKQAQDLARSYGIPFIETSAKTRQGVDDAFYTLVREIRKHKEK
Sequence of KRAS G12S (P62937 whole entry): as the sequence (P62937 whole entry, canonical isoform) above
Sequence of KRAS G12D (P01116 1-169 isoform P01116-2 G12D limits assumed): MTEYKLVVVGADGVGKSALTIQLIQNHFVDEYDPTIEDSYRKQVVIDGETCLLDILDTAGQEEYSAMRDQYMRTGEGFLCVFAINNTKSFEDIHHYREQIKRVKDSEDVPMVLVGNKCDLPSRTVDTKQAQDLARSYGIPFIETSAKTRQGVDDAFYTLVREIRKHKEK
Sequence of KRAS G12D (P62937 whole entry): as the sequence (P62937 whole entry, canonical isoform) above

The IC50 is the point on the concentration scale where inhibition reaches its midpoint. `CCn1c(-c2cccnc2[C@H](C)OC)c2c3cc(ccc31)-c1cc(C#N)cc(c1)C[C@H](NC(=O)[C@H](C(C)C)N(C)C(C)=O)C(=O)N1CCC[C@H](N1)C(=O)OCC(C)(C)C2` (atropisomer, axis not shown) [Example A430]: the IC50 on KRAS G12C (setting [1]), on KRAS G12D, at KRAS G12S, on KRAS G12V, on KRAS G13C (setting [2]) and on KRAS G13D (setting [3]) was greater than 10 µM in each case. Also, the IC50 on KRAS WT and on NRAS G12C was greater than 10 µM in each case.

Turning to `C=CC(=O)N1CC[C@]2(COCCN2C(=O)N(C)[C@H](C(=O)N[C@H]2Cc3nc(cs3)-c3ccc4c(c3)c(c(-c3cccnc3[C@H](C)OC)n4CC)CC(C)(C)COC(=O)[C@@H]3CCCN(N3)C2=O)C(C)C)C1` (atropisomer, axis not shown) [Example A677], the IC50 at NRAS G12C lay within 0.1 to 1 µM.

For the compound `CO[C@@H](C)c1ncccc1-c1c2c3cc(ccc3n1C)-c1csc(n1)C[C@H](NC(=O)[C@H](C(C)C)N(C)C(C)=O)C(=O)N1CCC[C@H](N1)C(=O)OCC(C)(C)C2` (racemic) [Example A103], the IC50 on KRAS G12C (setting [1]), at KRAS G12D, on KRAS G12S, at KRAS G12V, at KRAS G13C (setting [2]) and on KRAS G13D (setting [3]) was greater than 10 µM each time. In addition, the IC50 on KRAS WT and on NRAS G12C was greater than 10 µM each time.

Consider `CCn1c(-c2cccnc2[C@H](C)OC)c2c3cc(ccc31)-c1cc(O)cc(c1)C[C@H](NS(=O)(=O)CC1CCC3(CNC3)C1)C(=O)N1CCC[C@H](N1)C(=O)OCC(C)(C)C2` (mixture of isomers) [Example A188], for which the IC50 on KRAS G12C (setting [1]), on KRAS G12S, at KRAS G13D (setting [3]), on KRAS WT and on NRAS G12C was greater than 10 µM each time.

`CCn1c(-c2cccnc2[C@H](C)OC)c2c3cc(ccc31)-c1cc(O)cc(c1)C[C@H](NS(=O)(=O)N1CCN(C)CC1)C(=O)N1CCC[C@H](N1)C(=O)OCC(C)(C)C2` (racemic) [Example A193]: the IC50 on KRAS G12C (setting [1]), on KRAS G12D, on KRAS G12S, at KRAS G12V, at KRAS G13C (setting [2]) and at KRAS G13D (setting [3]) was greater than 10 µM throughout. Besides, the IC50 at KRAS WT and on NRAS G12C was greater than 10 µM throughout.

With `C=CC(=O)N1CC(OC[C@H](C(=O)N[C@H]2Cc3cccc(c3)-c3ccc4c(c3)c(c(-c3cccnc3[C@H](C)OC)n4CC)CC(C)(C)COC(=O)[C@@H]3CCCN(N3)C2=O)C(C)C)C1` (racemic) [Example A484], the IC50 is greater than 10 µM on KRAS G12V, greater than 10 µM on KRAS WT and 1 to 10 µM on NRAS G12C.

On to `CCC(=O)N1CC[C@H](C(=O)N(C)[C@H](C(=O)N[C@H]2Cc3cc(O)cc(c3)-c3ccc4c(c3)c(c(-c3ccccc3CCOC)n4CC)CC(C)(C)COC(=O)[C@@H]3CCCN(N3)C2=O)C(C)C)C1` [Example A34], for which the IC50 was in the range of 0.1 to 1 µM on KRAS G12C (setting [1]); 1 to 10 µM on KRAS G12S; 1 to 10 µM at KRAS G12V; 1 to 10 µM at KRAS G13C (setting [2]); 1 to 10 µM at KRAS G13D (setting [3]); 1 to 10 µM on KRAS WT.

Consider `CCn1c(-c2cccnc2COC)c2c3cc(ccc31)-c1cc(O)cc(c1)C[C@H](NC(=O)[C@H](C(C)C)N(C)C(=O)[C@H]1CCN(C(=O)C#CCN3CCOCC3)C1)C(=O)N1CCC[C@H](N1)C(=O)OCC(C)(C)C2` [Example A095], for which the IC50 was less than 0.01 µM at KRAS G12C (setting [4]), greater than 10 µM at KRAS G12D and less than 0.01 µM at NRAS G12C.

As for `CCn1c(-c2cccnc2COC)c2c3cc(ccc31)-c1cc(O)cc(c1)C[C@H](NC(=O)[C@H](C(C)C)N(C)C(=O)C1CN(C(=O)C#CCN(C)C)C1)C(=O)N1CCC[C@H](N1)C(=O)OCC(C)(C)C2` [Example A097], the IC50 on KRAS G12C (setting [4]) was less than 0.01 µM; at KRAS G12D, 1 to 10 µM; on KRAS G12S, 0.1 to 1 µM; on KRAS G12V, 0.1 to 1 µM; at KRAS G13C (setting [5]), less than 0.01 µM; on KRAS WT, 0.1 to 1 µM.

Take `C=CC(=O)N1CC[C@H](C(=O)N(C)[C@H](C(=O)N[C@H]2Cc3cc(O)cc(c3)-c3ccc4c(c3)c(c(-c3cnn(C)c3)n4CC)CC(C)(C)COC(=O)[C@@H]3CCCN(N3)C2=O)C(C)C)C1` [Example A099]: the IC50 is 0.1 to 1 µM on KRAS G12C (setting [4]); greater than 10 µM at KRAS G12D; 1 to 10 µM at KRAS G12S; 1 to 10 µM at KRAS G12V; 1 to 10 µM at KRAS G13C (setting [5]); greater than 10 µM at KRAS WT.

Regarding `CCn1c(-c2cccnc2[C@H](C)OC)c2c3cc(ccc31)-c1cc(O)cc(c1)C[C@H](NS(=O)(=O)c1cn(C)c(C)n1)C(=O)N1CCC[C@H](N1)C(=O)OCC(C)(C)C2` [Example A197], the IC50 on KRAS G13C (setting [2]), at KRAS WT and on NRAS G12C was greater than 10 µM each time.

Turning to `CCn1c(-c2cccnc2[C@H](C)OC)c2c3cc(ccc31)-c1cc(O)cc(c1)C[C@H](NS(=O)(=O)CC1CC1)C(=O)N1CCC[C@H](N1)C(=O)OCC(C)(C)C2` [Example A200], the IC50 on KRAS G13C (setting [2]), on KRAS WT and on NRAS G12C was greater than 10 µM in each case.

Take `CCn1c(-c2cccnc2[C@H](C)OC)c2c3cc(ccc31)-c1csc(n1)C[C@H](NC(=O)[C@H](C(C)C)N(C)C(=O)C1COC1)C(=O)N1CCC[C@H](N1)C(=O)OCC(C)(C)C2` [Example A245]: the IC50 against KRAS G13D (KRAS G13D FRET data IC50, KRAS G13D) is greater than 10 µM.

For the compound `CCn1c(-c2cccnc2[C@H](C)OC)c2c3cc(ccc31)-c1csc(n1)C[C@H](NC(=O)[C@H](C(C)C)N(C)C(=O)N1CC3(CCCN(C)C3=O)C1)C(=O)N1CCC[C@H](N1)C(=O)OCC(C)(C)C2` [Example A453], the half-inhibitory concentration (IC50) on KRAS G13D (setting [3]) was greater than 10 µM.

Take `C=CC(=O)N1CC[C@H](C(=O)N(C)[C@H](C(=O)N[C@H]2Cc3cccc(c3)-c3ccc4c(c3)c(c(-c3cc(CN(C)C)cnc3[C@H](C)OC)n4CC)CC(C)(C)COC(=O)[C@@H]3CCCN(N3)C2=O)C(C)C)C1` [Example A523]: the IC50 on KRAS G12C (setting [4]) was 1 to 10 µM; on KRAS G12S, greater than 10 µM; on KRAS G12V, greater than 10 µM; at KRAS G13C (setting [5]), greater than 10 µM; on KRAS G13D (setting [3]), greater than 10 µM; on KRAS WT, greater than 10 µM. At NRAS G12C, the IC50 was 1 to 10 µM.

For the compound `C=CC(=O)N1CC[C@H](C(=O)N(C)[C@H](C(=O)N[C@H]2Cc3cc(O)cc(c3)-c3ccc4c(c3)c(c(-c3ccc(CN5CC[C@@H](O)C5)cc3)n4CC)CC(C)(C)COC(=O)[C@@H]3CCCN(N3)C2=O)C(C)C)C1` [Examples A001], the IC50 on KRAS G12C (setting [4]) is 0.1 to 1 µM; on KRAS G12D it was greater than 10 µM; on KRAS G12S it was 1 to 10 µM; on KRAS G12V, 1 to 10 µM; on KRAS G13C (setting [5]), 1 to 10 µM; at KRAS WT, greater than 10 µM.

Consider `C=CC(=O)N1CC[C@H](C(=O)N(C)[C@H](C(=O)N[C@H]2Cc3cc(O)cc(c3)-c3ccc4c(c3)c(c(-c3cnccc3COC)n4CC)CC(C)(C)COC(=O)[C@@H]3CCCN(N3)C2=O)C(C)C)C1` [Examples A028], for which the IC50 on KRAS G12C (setting [4]) was 0.01 to 0.1 µM; at KRAS G12D, 0.1 to 1 µM; on KRAS G12S, 0.01 to 0.1 µM; at KRAS G12V, 0.01 to 0.1 µM; on KRAS G13C (setting [5]) it was 0.1 to 1 µM; on KRAS G13D (setting [3]), 0.1 to 1 µM. Moreover, the IC50 at KRAS WT was 0.1 to 1 µM.
